In US20170189418A1, “PHARMACEUTICAL COMPOSITION FOR TREATING LUNG CANCER” (MA SHEN KAI RUEI CO., LTD., priority 2015, published 2017):

Experiments:
Type in all cases: cell-based
Details in all cases: isolated compound
[1] = system: CH27 cells; assay: MTT survival assay, human lung cancer cell line CH27
Method: (§1) The Anctin K(AnK) and dehydroeburicoic acid (DeHBA) separately isolated from the Extraction A of Example 1 were added into the culture media of human lung-cancer cells, A549, CH27 or H460, to test for tumor cell survival by using anti-cancer drug screen model. This survival assay was carried out with the widely known MTT (3-[4,5-dimethylthiazol-2-yl]2,5-diphenyltetrazolium bromide) assay.
(§2) Lung cancer cell lines, A549 cells are adenocarcinomic human alveolar basal epithelial cells. A549 cell line are widely used as an in vitro model for a type II pulmonary epithelial cell model for drug metabolism and as a transfection host, while CH27 is human lung squamous carcinoma cell and H460 is human lung non-small cell carcinoma cell. The human lung-cancer cells, A549, CH27 and H460 were cultivated in media containing fetal calf serum for 10 hours. The proliferated cells were washed once with PBS, then treated with 1× trypsin-EDTA and centrifuged at 2000 rpm for 10 minutes. The supernatant was discarded and the cell pellet was re-suspended in […] of fresh culture medium by gently shaking. The cells were placed in a 96-well plate.
(§3) Subsequently, the plates were read on an ELISA reader to determine the survival rates. The half maximal inhibitory concentration (IC50) values were calculated and results of ex vivo survival assay were thus obtained.
(§4) By using the same manner as the method described above, respectively human lung cancer cell line A549, CH27 and H460 was cultured. After then, the pharmaceutical compositions A-F of the present invention was applied separately, and then MTT assay for each sample was measured to assess the inhibition effectiveness of various cancer cell activity while using pharmaceutical compositions A-F of the present invention.

[2] = system: H460 cells; assay: MTT survival assay, human lung cancer cell line H460
Method: as §1, §2, §3, §4

[3] = system: A549 cells; assay: MTT survival assay, human lung cancer cell line A549
Method: as §1, §2, §3, §4

Structure (SMILES)	half-maximal inhibitory concentration (IC50) [1]	survival rate of lung cancer cell [1]	half-maximal inhibitory concentration (IC50) [2]	survival rate of lung cancer cell [2]	half-maximal inhibitory concentration (IC50) [3]	survival rate of lung cancer cell [3]
C=C(CC[C@@H](C)[C@H]1CC[C@H]2C3=C(C(=O)C[C@]12C)[C@@]1(C)CC[C@@H](O)[C@](C)(O)C1C[C@@H]3O)C(C)C(=O)O (stereo partly drawn) [Anctin K]	relatively low	decreasing the survival rate	relatively low	decreasing the survival rate	relatively low	decreasing the survival rate
C=C(CC[C@@H](C(=O)O)[C@H]1CC[C@@]2(C)C3=CC[C@H]4C(C)(C)[C@@H](O)CC[C@]4(C)C3=CC[C@]12C)C(C)C [dehydroeburicoic acid]	relatively low	decreasing the survival rate	relatively low	decreasing the survival rate	relatively low	decreasing the survival rate
